Measurements published in US10392363B2, “Methods for treating protozoan infections” (Neoculi Pty Ltd., priority 2014, dated 2019).
Marks after values point to notes of the source that are not given here.

Experiments:
[1] = Solubility estimates using nephelometry; format: physicochemical; conditions: pH 6.5 phosphate buffer
Description: Compound in DMSO was spiked into either pH 6.5 phosphate buffer or 0.01 M HCl (approx. pH 2.0) with the final DMSO concentration being 1%. Samples were then analysed via Nephelometry to determine a solubility range. (See C. D. Bevan and R. S. Lloyd, Anal. Chem. 2000, 72, 1781-1787).

[2] = Exposure in male Swiss outbred mice following IV administration; format: in vivo; conditions: IV 5 mg/kg
Description: The systemic exposures of NCL026, NCL195, NCL259 and NCL812 were studied in nonfasted male Swiss outbred mice weighing 26.2-32.1 g. Mice had access to food and water ad libitum throughout the pre- and post-dose sampling period. Each compound was administered IV via a bolus injection into the tail vein (vehicle 20% (v/v) DMSO in PEG400, 1 mL/kg dose volume, n=8 mice per compound). […] A maximum of two samples were obtained from each mouse, with samples being taken either via submandibular bleed (approximately 120 μL; conscious sampling) or terminal cardiac puncture (0.6 mL; while mice were anaesthetised using inhaled Isoflurane). No urine samples were collected as mice were housed in bedded cages during the study. Blood was collected directly into polypropylene Eppendorf tubes containing heparin as anticoagulant, and stabilisation cocktail (containing Complete® (a protease inhibitor cocktail with EDTA) and potassium fluoride) to minimise the potential for ex vivo degradation of the test compounds in blood/plasma samples. Once collected, blood samples were centrifuged immediately, supernatant plasma was removed, and stored at −80° C. until analysis by LC-MS using methods standard in the art. Each compound was administered in a vehicle composed of 20% (v/v) DMSO in PEG400. Formulations were prepared by dissolving the compounds in DMSO prior to addition of PEG400. Formulations were not filtered prior to dosing and were administered to mice within 2.5 h of preparation. […] The dose administered to each mouse was calculated on the basis of the measured concentration in the IV formulation, the dose volume and individual mouse body weight. Plasma concentration versus time data were analysed using non-compartmental methods (WinNonlin Version 6.3.0.395). Standard calculations for each pharmacokinetic parameter were calculated using standard methods in the art.

[3] = values marked a, b are approximations

kinetic solubility under neutral pH conditions [1]: more moderate
Apparent t1/2 ([2]; plasma, value marked b is an approximation): 2.9 h
AUC0-inf [2, 3]: 5.5^a h * μM
Plasma CL [2, 3]: 56.0^a mL/min/kg
Plasma Vss [2, 3]: 12.8^a L/kg
SMILES: Cl.[H]/N=C(\N)NN=C(CC1CCCCC1)c1ccc(Cl)cc1 [NCL259]
